Assay in all cases: Pre-emergent herbicidal activity (Table A)
Holding throughout (type): in vivo

For one assay, the system named is Barnyardgrass. The settings on record: Echinochloa crus-galli, pre-emergence, Bygr, 11.2 kg/ha, 10-14 days, read-out: herbicidal rating (% inhibition). The procedure, abridged: (§1)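 Seeds or vegetative propagules were set on topsoil compacted to 0.95 to 1.27 cm below the pan rim, then covered with soil thoroughly mixed with a known amount of test compound in acetone or water carrier. Ratings follow a scale of percent inhibition per species.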

The next assay has as its system Canada thistle. The settings on record: Cirsium arvense, pre-emergence, Cath, 11.2 kg/ha, 10-14 days, read-out: herbicidal rating (% inhibition). The procedure, abridged: as §1
In a further assay the test system is Cocklebur. The settings on record: Xanthium strumarium, pre-emergence, Cobu, 11.2 kg/ha, 10-14 days, read-out: herbicidal rating (% inhibition). An outline of the steps:
as §1

A further assay concerns Common Lambsquarters. Particulars: Chenopodium album, pre-emergence, Colq, 11.2 kg/ha, 10-14 days, read-out: herbicidal rating (% inhibition). An outline of the steps:
as §1

The test system of a further assay is Downy Brome. Particulars: Bromus tectorum, pre-emergence, Dobr, 11.2 kg/ha, 10-14 days, read-out: herbicidal rating (% inhibition). The procedure, abridged:
as §1

In the next assay the test system is Morningglory. Particulars: Ipomoea, pre-emergence, Mogl, 11.2 kg/ha, 10-14 days, read-out: herbicidal rating (% inhibition). An outline of the steps: as §1
For a further assay, the system named is Pennsylvania Smartweed. The settings on record: pre-emergence, Pesw, 11.2 kg/ha, 10-14 days, read-out: herbicidal rating (% inhibition). An outline of the steps: as §1
In another assay the test system is Quackgrass. The settings on record: pre-emergence, Rhqg, 11.2 kg/ha, 10-14 days, read-out: herbicidal rating (% inhibition). The procedure, abridged:
as §1

Another assay has as its system Rhizome Johnsongrass. The settings on record: Sorghum halepense, pre-emergence, Rhjg, 11.2 kg/ha, 10-14 days, read-out: herbicidal rating (% inhibition). An outline of the steps:
as §1

Another assay relates to Velvetleaf. Particulars: Abutilon theophrasti, pre-emergence, Vele, 11.2 kg/ha, 10-14 days, read-out: herbicidal rating (% inhibition). An outline of the steps: as §1
Another assay concerns Yellow Nutsedge. The settings on record: Cyperus, pre-emergence, Yens, 11.2 kg/ha, 10-14 days, read-out: herbicidal rating (% inhibition). The procedure, abridged:
as §1

This is an account of results in US5391540A, “Substituted pyridine compounds” (Rohm and Haas Company, priority 1993, dated 1995).

Broadly, the inhibition is the percentage by which the read-out fell short of the control. `COC(=O)c1c(OC)nc(C(F)(F)F)c(C(=O)n2ccc(C)n2)c1CC(C)C` [Compound 51, 3-pyridinecarboxylic acid, 2-methoxy-4-(2-methylpropyl)-5-[(3-methy1-1H-pyrazo1-1-yl)carbonyl]-6-(trifluoromethyl)-, methyl ester]: the inhibition at 11200 g/ha in the assay with Barnyardgrass was in the range of 75 to 100%; with Canada thistle it was 75 to 100%; in the assay on Cocklebur it was 25 to 49%; in the assay with Common Lambsquarters, 75 to 100%; in the assay on Downy Brome, 75 to 100%; in the assay on Morningglory, 75 to 100%. In addition, the inhibition at 11200 g/ha in the assay on Pennsylvania Smartweed was 75 to 100%; with Quackgrass it was 75 to 100%; with Rhizome Johnsongrass, 75 to 100%; in the assay with Velvetleaf, 75 to 100%; in the assay with Yellow Nutsedge it was 25 to 49%.

Regarding `COC(=O)c1c(OC)nc(C(F)(F)F)c(C(=O)n2cccn2)c1C1CCC1` [Compound 52, 3-pyridinecarboxylic acid, 4-cyclobutyl-2-methoxy-5-(1H-pyrazo1-1-ylcarbonyl)-6-(trifluoromethyl)-, methyl ester], the inhibition at 11200 g/ha in the assay on Barnyardgrass, in the assay on Canada thistle, in the assay with Cocklebur, in the assay on Common Lambsquarters, in the assay with Downy Brome and in the assay on Morningglory was 75 to 100% throughout. For the same compound, the inhibition at 11200 g/ha lay within 75 to 100% with Pennsylvania Smartweed; 75 to 100% in the assay on Quackgrass; 0 to 24% in the assay on Rhizome Johnsongrass; 75 to 100% in the assay with Velvetleaf; 75 to 100% with Yellow Nutsedge.

Regarding `CCSC(=O)c1c(C(F)(F)F)nc(OC)c(C(=O)OC)c1CC(C)C` [Compound 53, 3-pyridinecarboxylic acid, 5-[(ethylthio)carbonyl]-2-methoxy-4-(2-methylpropyl)-6-(trifluoromethyl)-, methyl ester], the inhibition at 11200 g/ha is 75 to 100% with Barnyardgrass; 0 to 24% with Canada thistle; 75 to 100% with Cocklebur; 75 to 100% in the assay on Common Lambsquarters; 75 to 100% in the assay with Downy Brome; 75 to 100% in the assay with Morningglory. Besides, the inhibition at 11200 g/ha fell in the range of 75 to 100% in the assay with Pennsylvania Smartweed; 75 to 100% in the assay on Quackgrass; 0 to 24% in the assay with Rhizome Johnsongrass; 75 to 100% with Velvetleaf; 0 to 24% in the assay with Yellow Nutsedge.

In the case of `COc1nc(C(F)(F)F)c(C2=NCCS2)c(CC(C)C)c1C(=O)SC` [Compound 54, 3-pyridinecarbothioic acid, 5-(4,5-dihydro-2-thiazolyl)-2-methoxy-4-(2-methylpropyl)-6-(trifluoromethyl)-, S-methyl ester], the inhibition at 11200 g/ha in the assay with Barnyardgrass lay within 75 to 100%; in the assay on Canada thistle, 75 to 100%; with Cocklebur, 25 to 49%; in the assay with Common Lambsquarters, 75 to 100%; in the assay with Downy Brome, 75 to 100%; in the assay with Morningglory, 75 to 100%. In addition, the inhibition at 11200 g/ha in the assay on Pennsylvania Smartweed fell in the range of 75 to 100%; with Quackgrass, 75 to 100%; in the assay on Rhizome Johnsongrass, 0 to 24%; in the assay with Velvetleaf it was 75 to 100%; in the assay with Yellow Nutsedge, 0 to 24%.

On to `CN=C(SC)c1c(OC)nc(C(F)(F)F)c(C(=O)OC)c1CC(C)C` [Compound 55, 3-pyridinecarboxylic acid, 6-methoxy-5-[(methylimino)(methylthio)methyl]-4-(2-methylpropyl)-2-(trifluoromethyl)-, methyl ester], for which the inhibition at 11200 g/ha with Barnyardgrass was in the range of 75 to 100%; in the assay with Canada thistle, 0 to 24%; in the assay on Cocklebur it was 0 to 24%; in the assay with Common Lambsquarters it was 75 to 100%; with Downy Brome, 75 to 100%; with Morningglory, 25 to 49%. For the same compound, the inhibition at 11200 g/ha with Pennsylvania Smartweed lay within 75 to 100%; in the assay on Quackgrass, 75 to 100%; in the assay on Rhizome Johnsongrass, 0 to 24%; in the assay on Velvetleaf, 25 to 49%; in the assay with Yellow Nutsedge it was 0 to 24%.

Regarding `COC=Nc1c(OC)nc(C(F)(F)F)c(C(=O)OC)c1CC(C)C` [Compound 56, 3-pyridinecarboxylic acid, 6-methoxy-5-[(methoxymethylene)amino]-4-(2-methylpropyl)-2-(trifluoromethyl)-, methyl ester], the inhibition at 11200 g/ha with Barnyardgrass lay within 75 to 100%; in the assay on Canada thistle, 0 to 24%; in the assay with Cocklebur it was 0 to 24%; with Common Lambsquarters, 75 to 100%; with Downy Brome, 75 to 100%; with Morningglory, 0 to 24%. Moreover, the inhibition at 11200 g/ha in the assay with Pennsylvania Smartweed, in the assay on Quackgrass, in the assay with Rhizome Johnsongrass, in the assay on Velvetleaf and in the assay with Yellow Nutsedge was 0 to 24% each time.

With `COC(=O)c1c(C(F)(F)F)nc(OC)c(N=CN(C)C)c1CC(C)C` [Compound 57, 3-pyridinecarboxylic acid, 5[[(dimethylamino)methylene]amino]-6-methoxy-4-(2-methylpropyl)-2-(trifluoromethyl)-, methyl ester], the inhibition at 11200 g/ha with Barnyardgrass fell in the range of 75 to 100%; with Canada thistle it was 0 to 24%; with Cocklebur, 0 to 24%; in the assay on Common Lambsquarters, 75 to 100%; in the assay with Downy Brome, 75 to 100%; in the assay with Morningglory, 50 to 74%. Further, the inhibition at 11200 g/ha with Pennsylvania Smartweed was 0 to 24%; in the assay with Quackgrass, 75 to 100%; in the assay with Rhizome Johnsongrass, 75 to 100%; in the assay on Velvetleaf it was 50 to 74%; with Yellow Nutsedge it was 0 to 24%.

Consider `COC(=O)c1c(C(F)(F)F)nc(OC)c(N=CSC)c1CC(C)C` [Compound 58, 3-pyridinecarboxylic acid, 6-methoxy-4-(2-methylpropyl)-5-[(methylthiomethylene)]amino-2-(trifluoromethyl)-, methyl ester], for which the inhibition at 11200 g/ha fell in the range of 75 to 100% in the assay with Barnyardgrass; 0 to 24% with Canada thistle; 0 to 24% in the assay on Cocklebur; 75 to 100% in the assay on Common Lambsquarters; 75 to 100% in the assay with Downy Brome; 25 to 49% with Morningglory. Moreover, the inhibition at 11200 g/ha in the assay with Pennsylvania Smartweed was 75 to 100%; with Quackgrass, 75 to 100%; with Rhizome Johnsongrass it was 0 to 24%; with Velvetleaf, 25 to 49%; in the assay on Yellow Nutsedge it was 0 to 24%.

Consider `COc1nc(C(F)(F)F)c(C(=O)n2cccn2)c(C2CCC2)c1C(=O)n1cccn1` [Compound 59, 4-cyclobuty1-2-methoxy-3,5-bis(1H-pyrazo1-1-ylcarbonyl)-6-(trifluoromethyl)-pyridine], for which the inhibition at 11200 g/ha lay in the range of 75 to 100% in the assay with Barnyardgrass; 0 to 24% with Canada thistle; 0 to 24% in the assay with Cocklebur; 75 to 100% with Common Lambsquarters; 75 to 100% in the assay with Downy Brome; 75 to 100% in the assay on Morningglory. Also, the inhibition at 11200 g/ha in the assay with Pennsylvania Smartweed is 75 to 100%; in the assay with Quackgrass, 75 to 100%; with Rhizome Johnsongrass, 0 to 24%; with Velvetleaf, 50 to 74%; with Yellow Nutsedge, 0 to 24%.

In the case of `COC(=O)c1c(OC)nc(C(F)(F)F)c(C(=O)n2cncn2)c1CC(C)C` [Compound 60, 3-pyridinecarboxylic acid, 2-methoxy-4-(2-methylpropyl)-5-(1H-1,2,4-triazo1-1-ylcarbonyl)-6-(trifluoromethyl)-, methyl ester], the inhibition at 11200 g/ha was in the range of 75 to 100% in the assay with Barnyardgrass; 75 to 100% in the assay on Canada thistle; 25 to 49% in the assay with Cocklebur; 75 to 100% with Common Lambsquarters; 75 to 100% with Downy Brome; 75 to 100% with Morningglory. Further, the inhibition at 11200 g/ha in the assay with Pennsylvania Smartweed was 75 to 100%; in the assay with Quackgrass, 75 to 100%; in the assay with Rhizome Johnsongrass, 75 to 100%; in the assay on Velvetleaf it was 75 to 100%; in the assay with Yellow Nutsedge, 0 to 24%.

As for `CCOC=Nc1c(C(F)(F)F)nc(OC)c(C(=O)OC)c1CC(C)C` [Compound 61, 3-pyridinecarboxylic acid, 5-[(ethoxymethylene)amino]-2-methoxy-4-(2-methylpropyl)-6-(trifluoromethyl)-, methyl ester], the inhibition at 11200 g/ha in the assay with Barnyardgrass was in the range of 75 to 100%; with Canada thistle it was 50 to 74%; in the assay with Cocklebur, 25 to 49%; in the assay with Common Lambsquarters, 75 to 100%; in the assay on Downy Brome, 75 to 100%; in the assay on Morningglory, 75 to 100%. For the same compound, the inhibition at 11200 g/ha lay in the range of 75 to 100% with Pennsylvania Smartweed; 75 to 100% with Quackgrass; 75 to 100% in the assay on Rhizome Johnsongrass; 75 to 100% with Velvetleaf; 0 to 24% with Yellow Nutsedge.
